Data from PubChem BioAssay AID248 (DTP/NCI, 2004).
Several values for one entry are separate records, joined by “and”; a condition that tells them apart may be missing. Identical values can stand only once. Toxic doses and inconclusive results are not listed.

Tested on: L1210 leukemia ip in BDF1 mice, survival T/C
Assay: NCI In Vivo Anticancer Drug Screen. Data for tumor model L1210 Leukemia (intraperitoneal) in B6D2F1 (BDF1) mice
Conditions: endpoint: mean survival time, higher = longer survival
Summary of the method: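 Read-out is survival time, reported as the treated-group measurement over the vehicle-control measurement.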

[1] = dose: 25.0 mg/kg/injection, schedule: Q01DX001 (ip), vehicle: carboxymethylcellulose (CMC)
[2] = dose: 50.0 mg/kg/injection, schedule: Q01DX001 (ip), vehicle: carboxymethylcellulose (CMC)
[3] = dose: 100.0 mg/kg/injection, schedule: Q04DX003 (ip), vehicle: saline with Tween-80
[4] = dose: 200.0 mg/kg/injection, schedule: Q04DX003 (ip), vehicle: saline with Tween-80
[5] = dose: 100.0 mg/kg/injection, schedule: Q01DX001 (ip), vehicle: saline
[6] = dose: 100.0 mg/kg/injection, schedule: Q01DX001 (ip), vehicle: saline with Tween-80
[7] = dose: 100.0 mg/kg/injection, schedule: Q04DX002 (ip), vehicle: Klucel (hydroxypropylcellulose) (HPC)
[8] = dose: 200.0 mg/kg/injection, schedule: Q04DX002 (ip), vehicle: Klucel (hydroxypropylcellulose) (HPC)
[9] = dose: 400.0 mg/kg/injection, schedule: Q04DX002 (ip), vehicle: Klucel (hydroxypropylcellulose) (HPC)
[10] = dose: 100.0 mg/kg/injection, schedule: Q04DX003 (ip), vehicle: Klucel (hydroxypropylcellulose) (HPC)

NOCC(=O)O
T/C (dose: 5.0 mg/kg/injection, schedule: Q01DX Z (ip), vehicle: saline): 112 % of control
T/C (dose: 8.0 mg/kg/injection, schedule: Q01DX Z (ip), vehicle: saline): 97 % of control
T/C (dose: 12.0 mg/kg/injection, schedule: Q01DX Z (ip), vehicle: saline): 103 % of control
T/C (dose: 12.5 mg/kg/injection, schedule: Q01DX001 (ip), vehicle: carboxymethylcellulose (CMC)): 106 % of control
T/C (dose: 18.0 mg/kg/injection, schedule: Q01DX Z (ip), vehicle: saline): 103 % of control
T/C [1]: 97 % of control
T/C [2]: 95 % of control

C1=CC2C3C=CC(C3)C2C1 (configuration not stated)
T/C (dose: 50.0 mg/kg/injection, schedule: Q04DX003 (ip), vehicle: saline with Tween-80): 95 % of control
T/C [3]: 95 % of control
T/C [4]: 93 % of control

Cc1cc(=O)[nH]c(N/N=C/c2c(O)ccc3ccccc23)n1
T/C [5]: 96 % of control
T/C (dose: 200.0 mg/kg/injection, schedule: Q01DX001 (ip), vehicle: saline): 94 % of control
T/C (dose: 400.0 mg/kg/injection, schedule: Q01DX001 (ip), vehicle: saline): 89 % of control

C=C1CC2(C)C(=O)CCCC2OC1=O (configuration not stated)
T/C (dose: 25.0 mg/kg/injection, schedule: Q01DX001 (ip), vehicle: saline): 91 % of control
T/C (dose: 50.0 mg/kg/injection, schedule: Q01DX001 (ip), vehicle: saline): 100 % of control
T/C [6]: 102 % of control
T/C [5]: 106 % of control

CC(=O)OC/C=C(\C)CCC=O
T/C (dose: 100.0 mg/kg/injection, schedule: Q04DX003 (ip), vehicle: water): 98 % of control
T/C (dose: 200.0 mg/kg/injection, schedule: Q04DX003 (ip), vehicle: water): 102 % of control
T/C (dose: 400.0 mg/kg/injection, schedule: Q04DX003 (ip), vehicle: water): 100 % of control

CCCCCCCCCCCC[N+](C)(C)Cc1ccccc1
T/C (dose: 1.56 mg/kg/injection, schedule: Q01DX009 (ip), vehicle: saline): 106 % of control
T/C (dose: 3.12 mg/kg/injection, schedule: Q01DX009 (ip), vehicle: saline): 111 % of control
T/C (dose: 3.12 mg/kg/injection, schedule: Q04DX003 (ip), vehicle: saline): 98 % of control
T/C (dose: 6.25 mg/kg/injection, schedule: Q04DX003 (ip), vehicle: saline): 104 % of control
T/C (dose: 12.5 mg/kg/injection, schedule: Q01DX001 (ip), vehicle: saline): 103 % of control

O=C1C=CC(=O)N1c1ccc(N2C(=O)C=CC2=O)cc1
T/C (dose: 25.0 mg/kg/injection, schedule: Q04DX003 (ip), vehicle: saline): 110 % of control
T/C (dose: 50.0 mg/kg/injection, schedule: Q04DX003 (ip), vehicle: saline): 107 % of control
T/C (dose: 100.0 mg/kg/injection, schedule: Q04DX003 (ip), vehicle: saline): 100 % of control

CN1/C(=C/C=N/NC(N)=S)C(C)(C)c2ccccc21
T/C (dose: 100.0 mg/kg/injection, schedule: Q01DX001 (ip), vehicle: carboxymethylcellulose (CMC)): 102 % of control
T/C (dose: 200.0 mg/kg/injection, schedule: Q01DX001 (ip), vehicle: carboxymethylcellulose (CMC)): 98 % of control
T/C (dose: 400.0 mg/kg/injection, schedule: Q01DX001 (ip), vehicle: carboxymethylcellulose (CMC)): 98 % of control

CCOC(=O)CSc1ccc([N+](=O)[O-])cc1Cl
T/C (dose: 100.0 mg/kg/injection, schedule: Q01DX009 (ip), vehicle: Klucel (hydroxypropylcellulose) (HPC)): 102 % of control
T/C [7]: 96 % of control and 101 % of control
T/C (dose: 200.0 mg/kg/injection, schedule: Q01DX009 (ip), vehicle: Klucel (hydroxypropylcellulose) (HPC)): 106 % of control
T/C [8]: 104 % of control and 106 % of control
T/C (dose: 400.0 mg/kg/injection, schedule: Q01DX009 (ip), vehicle: Klucel (hydroxypropylcellulose) (HPC)): 104 % of control
T/C [9]: 95 % of control and 101 % of control

CC(O)CNC(=O)C(C)O (configuration not stated)
T/C [3]: 98 % of control
T/C [4]: 97 % of control
T/C (dose: 400.0 mg/kg/injection, schedule: Q04DX003 (ip), vehicle: saline with Tween-80): 102 % of control

O=C(Nc1ccc(C(=O)Nc2cccc(C3=NCCN3)c2)cc1)Nc1ccc(C2=NCCN2)cc1
T/C (dose: 15.0 mg/kg/injection, schedule: Q01DX Z (ip), vehicle: saline): 202 % of control
T/C (dose: 30.0 mg/kg/injection, schedule: Q01DX Z (ip), vehicle: saline): 183 % of control
T/C (dose: 60.0 mg/kg/injection, schedule: Q01DX Z (ip), vehicle: saline): 122 % of control
T/C (dose: 120.0 mg/kg/injection, schedule: Q01DX Z (ip), vehicle: saline): 100 % of control

CCCCCc1[nH]c(=O)[nH]c(=O)c1N=Nc1ccccc1
T/C [6]: 98 % of control
T/C (dose: 200.0 mg/kg/injection, schedule: Q01DX001 (ip), vehicle: saline with Tween-80): 97 % of control
T/C (dose: 400.0 mg/kg/injection, schedule: Q01DX001 (ip), vehicle: saline with Tween-80): 100 % of control

CC(=O)Nc1ccc(F)c(F)c1
T/C [7]: 98 % of control
T/C [8]: 113 % of control
T/C [9]: 121 % of control

CC(C)OC(=O)Nc1ccncc1
T/C (dose: 3.13 mg/kg/injection, schedule: Q01DX009 (ip), vehicle: saline with Tween-80): 93 % of control
T/C (dose: 6.25 mg/kg/injection, schedule: Q01DX009 (ip), vehicle: saline with Tween-80): 97 % of control
T/C (dose: 6.25 mg/kg/injection, schedule: Q04DX002 (ip), vehicle: saline with Tween-80): 110 % of control
T/C (dose: 12.5 mg/kg/injection, schedule: Q01DX009 (ip), vehicle: saline with Tween-80): 101 % of control
T/C (dose: 12.5 mg/kg/injection, schedule: Q04DX002 (ip), vehicle: saline with Tween-80): 96 % of control

CC1CCN(C(=O)C(c2ccccc2)c2ccccc2)CC1
T/C [7]: 101 % of control
T/C [8]: 86 % of control
T/C [9]: 101 % of control

CC(=O)Oc1c(I)cc(I)cc1C(=O)Nc1ccc(Cl)cc1
T/C (dose: 50.0 mg/kg/injection, schedule: Q01DX009 (ip), vehicle: saline with Tween-80): 94 % of control
T/C (dose: 100.0 mg/kg/injection, schedule: Q01DX009 (ip), vehicle: saline with Tween-80): 87 % of control

COc1ccc(Cl)c(C(=O)O)c1
T/C [7]: 114 % of control
T/C [8]: 114 % of control
T/C [9]: 103 % of control

O=C(Nc1ccc(F)c(Cl)c1)OCC1CCCO1 (configuration not stated)
T/C (dose: 6.25 mg/kg/injection, schedule: Q01DX009 (ip), vehicle: Klucel (hydroxypropylcellulose) (HPC)): 92 % of control
T/C (dose: 12.5 mg/kg/injection, schedule: Q01DX009 (ip), vehicle: Klucel (hydroxypropylcellulose) (HPC)): 89 % of control
T/C [10]: 94 % of control
T/C (dose: 200.0 mg/kg/injection, schedule: Q04DX003 (ip), vehicle: Klucel (hydroxypropylcellulose) (HPC)): 89 % of control

CC(=O)OC1CC(OC2C(O)CC(OC3C(O)CC(OC4CCC5(C)C(CCC6C5CCC5(C)C(C7=CC(=O)OC7)C(O)CC65O)C4)OC3C)OC2C)OC(C)C1OC1OC(CO)C(O)C(O)C1O (configuration not stated)
T/C (dose: 12.5 mg/kg/injection, schedule: Q04DX003 (ip), vehicle: Klucel (hydroxypropylcellulose) (HPC)): 97 % of control
T/C [1]: 111 % of control
T/C (dose: 25.0 mg/kg/injection, schedule: Q04DX003 (ip), vehicle: Klucel (hydroxypropylcellulose) (HPC)): 103 % of control
T/C [2]: 105 % of control
T/C (dose: 50.0 mg/kg/injection, schedule: Q04DX003 (ip), vehicle: Klucel (hydroxypropylcellulose) (HPC)): 112 % of control
T/C [10]: 97 % of control

CC(C)(C)C1CCS(=O)(=O)CC1.[Cl][Hg][Cl]
T/C (dose: 0.25 mg/kg/injection, schedule: Q01DX009 (ip), vehicle: saline): 97 % of control
T/C (dose: 0.5 mg/kg/injection, schedule: Q01DX009 (ip), vehicle: saline): 98 % of control
T/C (dose: 1.0 mg/kg/injection, schedule: Q01DX009 (ip), vehicle: saline): 94 % of control

Cc1cc(N=NC(=N)N)c(C(C)C)cc1NN=C(N)N
T/C (dose: 60.0 mg/kg/injection, schedule: Q01DX Z (oral), vehicle: carboxymethylcellulose (CMC)): 106 % of control
T/C (dose: 120.0 mg/kg/injection, schedule: Q01DX Z (oral), vehicle: carboxymethylcellulose (CMC)): 100 % of control
T/C (dose: 480.0 mg/kg/injection, schedule: Q01DX Z (oral), vehicle: carboxymethylcellulose (CMC)): 102 % of control

CCN(CC)CCCC(C)Nc1c2ccc(Cl)cc2nc2ccc(F)cc12 (configuration not stated)
T/C (dose: 44.0 mg/kg/injection, schedule: Q01DX Z (ip), vehicle: saline): 111 % of control
T/C (dose: 66.0 mg/kg/injection, schedule: Q01DX Z (ip), vehicle: saline): 117 % of control
T/C (dose: 100.0 mg/kg/injection, schedule: Q01DX Z (ip), vehicle: saline): 117 % of control
